Columns and labels:
Homo sapiens [1] = assay: AUC (0 to infinity) in healthy human at 500 mg, po administered as single dose; assay type: ADME, organism-based, Plasma; parameters: dose 500 mg, route oral, time infinity; settings: in vivo
Homo sapiens [2] = assay: AUC (0 to last) in healthy human at 500 mg, po administered as single dose; assay type: ADME, organism-based, Plasma; parameters: dose 500 mg, time 0 - last, route oral; settings: in vivo

AUC (Homo sapiens [1]): 8.94 ug/hr.ml | AUC (Homo sapiens [2]): 8.54 ug/hr.ml
SMILES: CC(=O)OCC(CCn1cnc2cnc(N)nc21)COC(C)=O [FAMCICLOVIR]

Source: ChEMBL document CHEMBL1649203, “Pharmacokinetics and safety of famciclovir in children with herpes simplex or varicella-zoster virus infection” (Antimicrob Agents Chemother, 2009)
